Biological target: T1, Human IL-17AF (Homo sapiens, UniProt Q16552+Q96PD4)
T1 construct: purchased Sino Biological Inc. CT047-H08H
T1 sequence (Q16552 24-155): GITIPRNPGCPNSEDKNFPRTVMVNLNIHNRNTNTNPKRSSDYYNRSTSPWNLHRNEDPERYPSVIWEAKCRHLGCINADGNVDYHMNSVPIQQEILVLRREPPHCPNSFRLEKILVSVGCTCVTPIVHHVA
T1 sequence (Q96PD4 31-163): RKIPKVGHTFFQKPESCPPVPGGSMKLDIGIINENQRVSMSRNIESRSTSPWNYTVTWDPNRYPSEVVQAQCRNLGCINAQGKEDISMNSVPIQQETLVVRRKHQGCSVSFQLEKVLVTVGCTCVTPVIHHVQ
Experiment: IL-17AF ELISA (competitive ELISA, IL-17AF/IL-17Ra receptor-ligand binding)
Conditions: human IL-17AF coated plate, human IL-17Ra, read-out: IC50, inhibitory activity of compounds on human IL-17AF
Outline: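 Inhibitors were first pre-incubated 10 min at 25 °C with plate-bound IL-17AF (coated at 0.625 μg/ml, PBS pH 7.4) before a 30-min exposure to IL-17Ra added from a 100 nM solution. Receptor capture read via anti-Fc HRP, TMB, A450. Residual activity normalized to blank/DMSO wells; IC50 by log(inhibitor)-normalized response, variable slope.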

SMILES | IC50
Cc1[nH]nc2c1-c1ccc(NC(=O)[C@@H](NC(=O)c3ccnn3C3CC3)C(C3CC3)C3CC3)cc1COCC2 [compound 6] | 100 to 500 nM
Cc1[nH]nc2c1-c1cnc(NC(=O)[C@@H](NC(=O)c3ccnn3C[C@@H]3C[C@H]3F)C(C3CC3)C3CC3)cc1COCC2 [compound 125] | 100 to 500 nM
Cc1[nH]nc2c1-c1cc(F)c(NC(=O)[C@@H](NC(=O)c3ccnn3C(C)C)C(C3CC3)C3CC3)cc1CN(C)C(=O)C2 [compound 132] | 100 to 500 nM
CCn1nccc1C(=O)N[C@H](C(=O)Nc1cc2c(cc1F)-c1c(n[nH]c1C)CC(=O)N(C)C2)C(C1CC1)C1CC1 [compound 133] | 100 to 500 nM
Cc1[nH]nc2c1-c1cc(F)c(NC(=O)[C@@H](NC(=O)c3ccnn3C(C)C)C(C3CC3)C3CC3)cc1CN(CC(F)F)C(=O)C2 [compound 144] | 100 to 500 nM
Cc1[nH]nc2c1-c1cc(F)c(NC(=O)[C@@H](NC(=O)c3ccnn3C(C)C)C(C3CC3)C3CC3)cc1CN(CC(C)(F)F)C(=O)C2 [compound 148] | 100 to 500 nM
Cc1[nH]nc2c1-c1cc(F)c(NC(=O)[C@@H](NC(=O)c3ccnn3C(C)C)C(C3CC3)C3CC3)cc1CN(CC(F)(F)F)C(=O)C2 [compound 152] | 100 to 500 nM
CCN1CCc2n[nH]c(C)c2-c2cc(F)c(NC(=O)[C@@H](NC(=O)c3ccnn3C(C)C)C(C3CC3)C3CC3)cc2C1 [compound 156] | 100 to 500 nM
Cc1[nH]nc2c1-c1cc(F)c(NC(=O)[C@@H](NC(=O)c3ccnn3C(C)C)C(C3CC3)C3CC3)cc1CN(CC(F)F)CC2 [compound 158] | 100 to 500 nM
CCn1nccc1C(=O)N[C@H](C(=O)Nc1cc2c(cc1F)-c1c(n[nH]c1C)CCN(CC(F)F)C2)C(C1CC1)C1CC1 [compound 159] | ≤ 100 nM
Cc1[nH]nc2c1-c1cc(F)c(NC(=O)[C@@H](NC(=O)c3ccnn3C(C)C)C(C3CC3)C3CC3)cc1CN(CC(C)(F)F)CC2 [compound 160] | 100 to 500 nM
CCn1nccc1C(=O)N[C@H](C(=O)Nc1cc2c(cc1F)-c1c(n[nH]c1C)CCN(CC(C)(F)F)C2)C(C1CC1)C1CC1 [compound 161] | ≤ 100 nM
Cc1[nH]nc2c1-c1cc(F)c(NC(=O)[C@@H](NC(=O)c3ccnn3C(C)C)C(C3CC3)C3CC3)cc1CN(CC(F)(F)F)CC2 [compound 164] | 100 to 500 nM
Cc1[nH]nc2c1-c1cc(F)c(NC(=O)[C@@H](NC(=O)c3ccnn3C(C)C)C(C3CC3)C3CC3)cc1CN(C1CC1)CC2 [compound 165] | 100 to 500 nM

Next, values leading:

IC50 | SMILES
≤ 100 nM | CCn1nccc1C(=O)N[C@H](C(=O)Nc1ccc2c(c1)COCCc1n[nH]c(C)c1-2)C(C1CC1)C1CC1 [compound 3]
≤ 100 nM | Cc1[nH]nc2c1-c1cc(F)c(NC(=O)[C@@H](NC(=O)c3ccnn3C(C)C)C(C3CC3)C3CC3)cc1CN(C1CC1)C(=O)C2 [compound 136]
≤ 100 nM | CCN1Cc2cc(NC(=O)[C@@H](NC(=O)c3ccnn3C(C)C)C(C3CC3)C3CC3)c(F)cc2-c2c(n[nH]c2C)CC1=O [compound 142]
≤ 100 nM | CCN1Cc2cc(NC(=O)[C@@H](NC(=O)c3ccnn3CC)C(C3CC3)C3CC3)c(F)cc2-c2c(n[nH]c2C)CC1=O [compound 143]
≤ 100 nM | CCn1nccc1C(=O)N[C@H](C(=O)Nc1cc2c(cc1F)-c1c(n[nH]c1C)CC(=O)N(CC(F)F)C2)C(C1CC1)C1CC1 [compound 145]
≤ 100 nM | CCn1nccc1C(=O)N[C@H](C(=O)Nc1cc2c(cc1F)-c1c(n[nH]c1C)CC(=O)N(CC(C)(F)F)C2)C(C1CC1)C1CC1 [compound 149]
≤ 100 nM | Cc1[nH]nc2c1-c1cc(F)c(NC(=O)[C@@H](NC(=O)c3ccnn3C(C)C)C(C3CC3)C3CC3)cc1CN(C(C)C)C(=O)C2 [compound 150]
≤ 100 nM | CCn1nccc1C(=O)N[C@H](C(=O)Nc1cc2c(cc1F)-c1c(n[nH]c1C)CC(=O)N(C(C)C)C2)C(C1CC1)C1CC1 [compound 151]
≤ 100 nM | Cc1[nH]nc2c1-c1cc(F)c(NC(=O)[C@@H](NC(=O)c3ccnn3C(C)C)C(C3CC3)C3CC3)cc1CN(CC1CC1)C(=O)C2 [compound 153]

— US20260258050A1, “IMMUNOMODULATOR” (HITGEN INC., priority 2023, published 2026)
